From patent US20140377340A1, “HLA-DR BINDING PEPTIDES AND THEIR USES” (priority 2007, published 2014)

Columns and labels:
purified HLA DRB1*0101 = target: T1, purified HLA DRB1*0101 (Homo sapiens, UniProt P01903+P01911, A100R/D57E/F55L/F60I/F76Y/I96L/L162R/M171V/P40L/Q125E/R42F/V115G/Y59C); assay: HLA-DR radioligand binding inhibition assay, DRB1*0101; details: IC50 nM purified HLA DRB1 *0101, purified HLA DRB1*0101
T1 construct: purified from EBV transformed homozygous cell lines or single MHC allele transfected 721.221, C1R, or fibroblast lines; made in house
Experimental: (§1) Instead, wells of an opaque white 96-well Optiplate (Packard) are coated with 3 μg (100 μl@ 30 μg/ml) of HLA-specific antibody (Ab) that “capture” complexes of radiolabeled MHC and unlabeled peptide transferred from the molecular binding assay plate in 100 μl of 0.05% NP40/PBS. After a 3-hour incubation period, the supernatant is decanted and scintillation fluid (Microscint 20) added. Captured complexes are then measured on a microplate scintillation and luminescence counter (TopCount NXTTM; Packard).
(§2) HLA-DR purification. Fifteen distinct HLA-DR molecules were used in quantitative assays to measure the binding of peptides to solubilized HLA-DR molecules. […] Briefly, columns of inactivated Sepharose CL4B and Protein A Sepharose were used as pre-columns. HLA-DR molecules were captured by passage of lysates over LB3.1 monoclonal antibody (anti-HLA-DRA) columns. Antibody columns were washed with 10 mM Tris-HCL, pH8.0 with 1% (v/v) NP-40, followed by PBS containing 0.4% (w/v) n-octylglucoside.
(§3) Briefly, 1-10 nM of radiolabeled peptide was co-incubated for 2 days at either room temperature or 37° C. with 1 μM to 1 nM purified HLA-DR molecules in the presence of a cocktail of protease inhibitors. Assays were performed at various pH conditions, ranging from pH 4 to pH 7. […] After incubation, the percentage of HLA-DR-bound radioactivity is determined by capturing HLA-DR/peptide complexes on Optiplates (Packard Instruments, Meriden, Conn.) coated with the LB3.1 antibody and determining bound counts per minute using the TopCount microscintillation counter (Packard Instruments).

purified HLA DRB1*0405 = target: T2, purified HLA DRB1*0405 (Homo sapiens, UniProt P01903+P01911, A100R/A169T/D86S/F76Y/I96L/K127E/L162R/M171V/N62H/P40V/Q125Y/R42H/S133A/S149N/S66Y/V115G/V209L/W38E); assay: HLA-DR radioligand binding inhibition assay, DRB1*0405; details: IC50 nM purified HLA DRB1 *0405, purified HLA DRB1*0405
T2 construct: purified from EBV transformed homozygous cell lines or single MHC allele transfected 721.221, C1R, or fibroblast lines; made in house
Experimental: as §1, §2, §3

purified HLA DRB1*1302 = target: T3, purified HLA DRB1*1302 (Homo sapiens, UniProt P01903+P01911, A100E/A169T/K41T/L162R/M171V/P40S/Q125H/Q178H/Q39Y/Q99D/R42S/S66N/T262R/V115G/W38E/Y61H); assay: HLA-DR radioligand binding inhibition assay, DRB1*1302
T3 construct: purified from EBV transformed homozygous cell lines or single MHC allele transfected 721.221, C1R, or fibroblast lines; made in house
Experimental: as §1, §2, §3

purified HLA DRB1*0701 = target: T4, purified HLA DRB1*0701 (Homo sapiens, UniProt P01903+P01911, A100R/A102G/A103Q/D57E/D86V/E43K/F76Y/K127E/L162R/M171V/P40G/Q125H/Q99D/R33Q/R42Y/R54Q/S133A/S66F/T210M/V115G/Y107V/Y59L/Y89S); assay: HLA-DR radioligand binding inhibition assay, DRB1*0701; details: IC50 nM purified HLA DRB1 *0701, purified HLA DRB1*0701
T4 construct: purified from EBV transformed homozygous cell lines or single MHC allele transfected 721.221, C1R, or fibroblast lines; made in house
Experimental: as §1, §2, §3

purified HLA DRB1*1101 = target: T5, purified HLA DRB1*1101 (Homo sapiens, UniProt P01903+P01911, A100R/A169T/A87E/I96F/K41T/L162R/M171V/P40S/Q125H/Q178H/Q39Y/Q99D/R42S/S66Y/T262R/V115G/W38E); assay: HLA-DR radioligand binding inhibition assay, DRB1*1101; details: IC50 nM purified HLA DRB1 *1101, purified HLA DRB1*1101
T5 construct: purified from EBV transformed homozygous cell lines or single MHC allele transfected 721.221, C1R, or fibroblast lines; made in house
Experimental: as §1, §2, §3

purified HLA DRB5*0101 = target: T6, purified HLA DRB5*0101 (Homo sapiens, UniProt P01903+Q30154); assay: HLA-DR radioligand binding inhibition assay, DRB5*0101; details: IC50 nM purified HLA DRB5 *0101, purified HLA DRB5*0101
T6 construct: purified from EBV transformed homozygous cell lines or single MHC allele transfected 721.221, C1R, or fibroblast lines; made in house
Experimental: as §1, §2, §3

purified HLA DRB1*0401 = target: T7, purified HLA DRB1*0401 (Homo sapiens, UniProt P01903+P01911, A100K/A169T/F76Y/I96L/K127E/L162R/M171V/N62H/P40V/Q125Y/R42H/S133A/S149N/S66Y/V115G/V209L/W38E); assay: HLA-DR radioligand binding inhibition assay, DRB1*0401; details: IC50 nM purified HLA DRB1 *0401, purified HLA DRB1*0401
T7 construct: purified from EBV transformed homozygous cell lines or single MHC allele transfected 721.221, C1R, or fibroblast lines; made in house
Experimental: as §1, §2, §3

purified HLA DRB1*1501 = target: T8, purified HLA DRB1*1501 (Homo sapiens, UniProt P01903+P01911); assay: HLA-DR radioligand binding inhibition assay, DRB1*1501
T8 construct: purified from EBV transformed homozygous cell lines or single MHC allele transfected 721.221, C1R, or fibroblast lines; made in house
Experimental: as §1, §2, §3

T5 sequence (P01903 26-254, other chains not shown): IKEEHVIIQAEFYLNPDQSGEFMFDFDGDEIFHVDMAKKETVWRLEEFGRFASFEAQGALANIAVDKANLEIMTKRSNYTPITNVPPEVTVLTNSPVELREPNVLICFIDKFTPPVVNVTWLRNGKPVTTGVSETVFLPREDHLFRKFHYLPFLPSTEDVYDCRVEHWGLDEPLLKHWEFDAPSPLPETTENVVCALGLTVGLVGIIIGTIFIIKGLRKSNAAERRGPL

Row | SMILES | IC50 (purified HLA DRB1*0101) [nM] | IC50 (purified HLA DRB1*0405) [nM] | IC50 (purified HLA DRB1*1302) [nM] | IC50 (purified HLA DRB1*0701) [nM] | IC50 (purified HLA DRB1*1101) [nM] | IC50 (purified HLA DRB5*0101) [nM] | IC50 (purified HLA DRB1*0401) [nM] | IC50 (purified HLA DRB1*1501) [nM]
1 | CSCC[C@H](NC(=O)CNC(=O)[C@H](CC(C)C)NC(=O)[C@H](CC(=O)O)NC(=O)CNC(=O)[C@@H](N)CC(=O)O)C(=O)NCC(=O)N[C@@H](C)C(=O)N[C@@H](C)C(=O)N[C@@H](CCCCN)C(=O)NCC(=O)N[C@@H](CC(C)C)C(=O)N[C@@H](CCC(N)=O)C(=O)N[C@@H](CO)C(=O)N[C@@H](CC(C)C)C(=O)O [Peptide 9019.0097] | 110 | 5800 | 3230 |  |  |  |  | 
2 | CC[C@H](C)[C@H](NC(=O)[C@@H](NC(=O)[C@@H]1CCCN1C(=O)[C@H](C)NC(=O)[C@H](CC(=O)O)NC(=O)[C@@H]1CCCN1C(=O)CNC(=O)[C@H](Cc1ccc(O)cc1)NC(=O)[C@H](CC(C)C)NC(=O)[C@@H](NC(=O)[C@H](CC(N)=O)NC(=O)[C@@H](N)CC(C)C)C(C)C)[C@@H](C)O)C(=O)N[C@@H](CO)C(=O)N1CCC[C@H]1C(=O)N[C@@H](CC(C)C)C(=O)O [Peptide 9019.0120] |  | > 20000 |  | 410 | > 20000 | > 20000 |  | 
3 | CC[C@H](C)[C@H](NC(=O)[C@@H](NC(=O)[C@@H]1CCCN1C(=O)[C@H](C)N)[C@@H](C)O)C(=O)N[C@@H](CO)C(=O)N1CCC[C@H]1C(=O)N[C@@H](CC(C)C)C(=O)N[C@@H](CC(N)=O)C(=O)N[C@H](C(=O)N[C@@H](CO)C(=O)N[C@@H](Cc1ccc(O)cc1)C(=O)N[C@@H](CCCNC(=N)N)C(=O)N[C@@H](CO)C(=O)NCC(=O)N[C@@H](CCC(=O)O)C(=O)O)[C@@H](C)O [Peptide 9019.0121] | 2430 | 5990 | 125 |  |  |  | 295 | 
4 | CSCC[C@H](NC(=O)[C@H](C)NC(=O)[C@H](CC(C)C)NC(=O)[C@@H]1CCCN1C(=O)[C@H](Cc1ccccc1)NC(=O)[C@@H](NC(=O)[C@H](CCC(=O)O)NC(=O)[C@H](CCC(=O)O)NC(=O)[C@@H](N)CCC(=O)O)C(C)C)C(=O)N[C@@H](CC(N)=O)C(=O)N[C@@H](Cc1ccc(O)cc1)C(=O)N[C@@H](CC(C)C)C(=O)N[C@@H](CC(=O)O)C(=O)N[C@@H](CCCNC(=N)N)C(=O)N[C@@H](Cc1ccccc1)C(=O)O [Peptide 9019.0152] | 850 |  | 26 |  |  |  |  | 77
5 | CC[C@H](C)[C@H](NC(=O)[C@@H](NC(=O)[C@H](CCC(=O)O)NC(=O)[C@H](CCCCN)NC(=O)[C@H](CCSC)NC(=O)[C@H](CCCCN)NC(=O)[C@H](CO)NC(=O)[C@H](C)NC(=O)[C@@H](NC(=O)[C@H](Cc1ccccc1)NC(=O)[C@H](CCSC)NC(=O)[C@H](CS)NC(=O)[C@@H](N)[C@@H](C)O)C(C)C)[C@@H](C)O)C(=O)N1CCC[C@H]1C(=O)N[C@@H](CC(C)C)C(=O)O [Peptide 9019.0157] |  |  |  | 17 | 61 | 36 |  | 
6 | CC[C@H](C)[C@H](NC(=O)[C@@H](NC(=O)[C@H](CCC(=O)O)NC(=O)[C@H](CCCCN)NC(=O)[C@H](CCSC)NC(=O)[C@H](CCCCN)NC(=O)[C@H](CO)NC(=O)[C@H](C)N)[C@@H](C)O)C(=O)N1CCC[C@H]1C(=O)N[C@@H](CC(C)C)C(=O)N[C@H](C(=O)N[C@@H](C)C(=O)N[C@@H](CCC(=O)O)C(=O)N[C@@H](CCCCN)C(=O)N[C@@H](CC(C)C)C(=O)O)[C@@H](C)O [Peptide 9019.0158] | 130 | > 20000 | 550 | 220 |  |  | > 20000 | 
7 | CC(C)C[C@H](NC(=O)CNC(=O)[C@H](CC(C)C)NC(=O)[C@H](Cc1c[nH]cn1)NC(=O)[C@H](Cc1c[nH]cn1)NC(=O)[C@H](CCCCN)NC(=O)CN)C(=O)N[C@@H](CCC(=O)O)C(=O)N[C@@H](CCC(=O)O)C(=O)N1CCC[C@H]1C(=O)N[C@@H](CCCCN)C(=O)N[C@@H](CCCCN)C(=O)N[C@@H](CC(C)C)C(=O)N[C@@H](CCCNC(=N)N)C(=O)N1CCC[C@H]1C(=O)O [Peptide 9019.0187] |  | 6480 |  | 3100 | 16800 |  |  | 
